Data set [1] is described as follows: Acute toxicity in C57BL/6 mouse assessed as histopathological change in spleen at 20 mg/kg,ip qd administrated for 3 consecutive days and measured on day 4 by hematoxylin and eosin staining based assay. Format: organism-based. As to conditions: in vivo.
Data set [2] is described as follows: Acute toxicity in C57BL/6 mouse assessed as visceral cellular damage at 20 mg/kg,ip qd administrated for 3 consecutive days and measured on day 4 by hematoxylin and eosin staining based assay. Format: organism-based. The following applies: in vivo.
Data set [3] in a line: Acute toxicity in C57BL/6 mouse assessed as histopathological change in heart at 20 mg/kg,ip qd administrated for 3 consecutive days and measured on day 4 by hematoxylin and eosin staining based assay. The data set is classed as organism-based. The following applies: in vivo.
Data set [4] relates to AML12. As to the kind of experiment: Antioxidant activity against free fatty acid induced oxidative stress in mouse AML12 cells assessed as increase in GSH level. The data set is classed as functional, cell-based.
The nature of data set [5]: Acute toxicity in C57BL/6 mouse assessed as histopathological change in lung at 20 mg/kg,ip qd administrated for 3 consecutive days and measured on day 4 by hematoxylin and eosin staining based assay. The data set is classed as organism-based. As to conditions: in vivo.
Data set [6] has as its system Mus musculus. The data set can be described thus: Antioxidant activity against MCD diet-induced oxidative stress in C57Bl/6 mouse model of NAFLD assessed as downregulation of liver Keap1 protein expression level at 1 mg/kg,ip administrated for 4 weeks by immunofluorescence staining analysis. The data set is classed as functional, organism-based.
Data set [7] is described as follows: Acute toxicity in C57BL/6 mouse assessed as histopathological change in liver at 20 mg/kg,ip qd administrated for 3 consecutive days and measured on day 4 by hematoxylin and eosin staining based assay. Format: organism-based. As to conditions: in vivo.
Data set [8] relates to Mus musculus. As to the kind of experiment: Antioxidant activity against MCD diet-induced oxidative stress in C57Bl/6 mouse model of NAFLD assessed as upregulation of liver Nrf2 protein expression level at 1 mg/kg,ip administrated for 4 weeks by immunofluorescence staining analysis. Format: functional, organism-based.
The target in data set [9] is Kelch-like ECH-associated protein 1 (Homo sapiens, UniProt Q14145). The data set can be described thus: Binding affinity to Keap1 (unknown origin) assessed as dissociation constant incubated for 200 sec by sensor chip immobilization based surface plasmon resonance analysis.
Kelch-like ECH-associated protein 1, sequence (Q14145 whole entry): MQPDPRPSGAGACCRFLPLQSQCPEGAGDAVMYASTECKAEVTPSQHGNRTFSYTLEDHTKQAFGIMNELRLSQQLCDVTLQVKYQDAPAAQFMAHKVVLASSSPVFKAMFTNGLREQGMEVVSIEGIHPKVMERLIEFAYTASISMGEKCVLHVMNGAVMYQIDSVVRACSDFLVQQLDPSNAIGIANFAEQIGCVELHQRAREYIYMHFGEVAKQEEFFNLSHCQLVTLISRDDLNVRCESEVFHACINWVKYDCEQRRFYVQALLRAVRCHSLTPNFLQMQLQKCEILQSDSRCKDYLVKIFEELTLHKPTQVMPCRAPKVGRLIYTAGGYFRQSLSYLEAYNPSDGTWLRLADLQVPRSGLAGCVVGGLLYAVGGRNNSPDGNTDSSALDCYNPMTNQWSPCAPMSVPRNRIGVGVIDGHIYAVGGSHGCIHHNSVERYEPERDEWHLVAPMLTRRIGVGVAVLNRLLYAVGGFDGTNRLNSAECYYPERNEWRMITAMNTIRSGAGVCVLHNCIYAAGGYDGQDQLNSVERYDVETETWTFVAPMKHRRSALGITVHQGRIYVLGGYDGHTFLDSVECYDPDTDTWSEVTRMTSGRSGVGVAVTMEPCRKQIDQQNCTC
In data set [10] the target is Protein cereblon/Kelch-like ECH-associated protein 1 (Mus musculus) (UniProt Q9Z2X8+Q8C7D2). As to the kind of experiment: PROTAC activity at CRBN/Keap1 in mouse AML12 cells assessed as degradation of Keap1 protein at 1 uM incubated for 24 hrs by Western blotting analysis. The data set is classed as cell-based.
Protein cereblon/Kelch-like ECH-associated protein 1 (Mus musculus), sequence (Q8C7D2 whole entry, looked up): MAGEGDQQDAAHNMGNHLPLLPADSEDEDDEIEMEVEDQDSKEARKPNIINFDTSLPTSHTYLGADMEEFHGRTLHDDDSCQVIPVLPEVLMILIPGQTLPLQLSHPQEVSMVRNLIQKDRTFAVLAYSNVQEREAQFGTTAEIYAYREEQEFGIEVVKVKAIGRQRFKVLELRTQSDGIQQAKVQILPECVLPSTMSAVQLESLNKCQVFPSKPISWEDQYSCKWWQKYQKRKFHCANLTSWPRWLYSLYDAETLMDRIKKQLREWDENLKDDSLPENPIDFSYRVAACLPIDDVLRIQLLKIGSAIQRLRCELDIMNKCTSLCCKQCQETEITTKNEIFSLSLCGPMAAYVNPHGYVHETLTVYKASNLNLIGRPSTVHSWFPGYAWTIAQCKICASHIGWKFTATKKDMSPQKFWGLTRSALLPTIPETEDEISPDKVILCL
Protein cereblon/Kelch-like ECH-associated protein 1 (Mus musculus), sequence (Q9Z2X8 whole entry, looked up): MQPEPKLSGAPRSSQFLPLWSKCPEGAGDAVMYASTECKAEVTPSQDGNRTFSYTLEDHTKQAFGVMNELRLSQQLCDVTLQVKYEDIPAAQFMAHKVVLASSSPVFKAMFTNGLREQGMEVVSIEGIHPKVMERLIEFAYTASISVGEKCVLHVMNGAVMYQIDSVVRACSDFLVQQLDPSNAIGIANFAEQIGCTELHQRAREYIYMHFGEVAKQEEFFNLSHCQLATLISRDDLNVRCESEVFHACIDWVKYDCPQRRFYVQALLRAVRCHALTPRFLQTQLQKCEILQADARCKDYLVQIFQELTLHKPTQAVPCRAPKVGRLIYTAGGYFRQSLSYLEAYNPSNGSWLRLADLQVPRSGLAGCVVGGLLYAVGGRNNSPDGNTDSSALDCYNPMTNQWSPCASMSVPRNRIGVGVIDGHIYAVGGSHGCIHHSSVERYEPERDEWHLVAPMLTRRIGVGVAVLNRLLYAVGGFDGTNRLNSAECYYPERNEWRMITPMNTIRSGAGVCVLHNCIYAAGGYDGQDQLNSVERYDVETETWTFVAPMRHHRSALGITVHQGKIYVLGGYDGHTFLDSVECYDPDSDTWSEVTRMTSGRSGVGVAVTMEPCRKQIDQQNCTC
The subject of data set [11] is Mus musculus. As to the kind of experiment: Antioxidant activity against MCD diet-induced oxidative stress in C57Bl/6 mouse model of NAFLD assessed as upregulation of liver NQO1 protein expression level at 1 mg/kg,ip administrated for 4 weeks by immunohistochemical staining assay. The data set is classed as functional, organism-based.
Data set [12] has as its system Mus musculus. The data set can be described thus: Antioxidant activity against MCD diet-induced oxidative stress in C57Bl/6 mouse model of NAFLD assessed as decrease in liver ROS level at 1 mg/kg,ip administrated for 4 weeks by immunostaining analysis. Format: functional, organism-based.
Data set [13] in a line: Acute toxicity in C57BL/6 mouse assessed as visceral inflammatory cell infiltration at 20 mg/kg,ip qd administrated for 3 consecutive days and measured on day 4 by hematoxylin and eosin staining based assay. As to conditions: in vivo. The data set is classed as organism-based.
Data set [14] in a line: Acute toxicity in zebrafish assessed as death at 10 uM observed at 72 hrs post fertilization. The arrangement: species or system Danio rerio. The following applies: in vivo.
Data set [15] relates to Mus musculus. The data set can be described thus: Antioxidant activity against MCD diet-induced oxidative stress in C57Bl/6 mouse model of NAFLD assessed as increase in CAT level in liver at 1 mg/kg,ip administrated for 4 weeks. The data set is classed as functional, organism-based.
Data set [16] concerns Mus musculus. The data set can be described thus: Antioxidant activity against MCD diet-induced oxidative stress in C57Bl/6 mouse model of NAFLD assessed as downregulation of liver Keap1 protein expression level at 1 mg/kg,ip administrated for 4 weeks by immunohistochemical staining assay. Format: functional, organism-based.
Data set [17] concerns Mus musculus. As to the kind of experiment: Antioxidant activity against MCD diet-induced oxidative stress in C57Bl/6 mouse model of NAFLD assessed as upregulation of liver HO-1 protein expression level at 1 mg/kg,ip administrated for 4 weeks by immunohistochemical staining assay. Format: functional, organism-based.
Data set [18] deals with AML12. As to the kind of experiment: Antioxidant activity against free fatty acid induced oxidative stress in mouse AML12 cells assessed as upregulation of HO-1 protein expression level incubated for 24 hrs by immunoblot analysis. Format: functional, cell-based.
For data set [19], the system named is Mus musculus. As to the kind of experiment: Antioxidant activity against MCD diet-induced oxidative stress in C57Bl/6 mouse model of NAFLD assessed as increase in SOD level in liver at 1 mg/kg,ip administrated for 4 weeks. Format: functional, organism-based.
The subject of data set [20] is Mus musculus. As to the kind of experiment: Antioxidant activity against MCD diet-induced oxidative stress in C57Bl/6 mouse model of NAFLD assessed as decrease in histopathological change in liver at 1 mg/kg,ip administrated for 4 weeks by hematoxylin and eosin staining based assay. Format: functional, organism-based.
Data set [21] concerns Mus musculus. As to the kind of experiment: Antioxidant activity against MCD diet-induced oxidative stress in C57Bl/6 mouse model of NAFLD assessed as increase in GSH level in liver at 1 mg/kg,ip administrated for 4 weeks. The data set is classed as functional, organism-based.
In data set [22] the test system is AML12. The data set can be described thus: Antioxidant activity against free fatty acid induced oxidative stress in mouse AML12 cells assessed as upregulation of Nrf2 protein expression level incubated for 24 hrs by immunoblot analysis. The data set is classed as functional, cell-based.
The nature of data set [23]: Acute toxicity in C57BL/6 mouse assessed as visceral damage at 20 mg/kg,ip qd administrated for 3 consecutive days and measured on day 4 by hematoxylin and eosin staining based assay. Format: organism-based. The following applies: in vivo.
Data set [24] has as its system AML12. As to the kind of experiment: Antioxidant activity against free fatty acid induced oxidative stress in mouse AML12 cells assessed as decrease in ROS level incubated for 24 hrs. Format: functional, cell-based.
The test system of data set [25] is AML12. As to the kind of experiment: Antioxidant activity against free fatty acid induced oxidative stress in mouse AML12 cells assessed as increase in SOD level. The data set is classed as functional, cell-based.
Data set [26] relates to AML12. As to the kind of experiment: Antioxidant activity against free fatty acid induced oxidative stress in mouse AML12 cells assessed as downregulation of Keap1 protein expression level incubated for 24 hrs by immunoblot analysis. The data set is classed as functional, cell-based.
A short description of data set [27]: Acute toxicity in zebrafish at < 2.5 uM observed at 120 hrs post fertilization. Also on record: species or system Danio rerio. The following applies: in vivo.
The subject of data set [28] is Mus musculus. The data set can be described thus: Antioxidant activity against MCD diet-induced oxidative stress in C57Bl/6 mouse model of NAFLD assessed as downregulation of liver Keap1 protein expression level at 1 mg/kg,ip administrated for 4 weeks by immunoblot analysis. The data set is classed as functional, organism-based.
Data set [29] relates to Mus musculus. As to the kind of experiment: Antioxidant activity against MCD diet-induced oxidative stress in C57Bl/6 mouse model of NAFLD assessed as reduction of serum TG level at 1 mg/kg,ip administrated for 4 weeks. The data set is classed as functional, organism-based.
In data set [30] the test system is Mus musculus. The data set can be described thus: Antioxidant activity against MCD diet-induced oxidative stress in C57Bl/6 mouse model of NAFLD assessed as upregulation of liver Nrf2 protein expression level at 1 mg/kg,ip administrated for 4 weeks by immunoblot analysis. The data set is classed as functional, organism-based.
For data set [31], the system named is AML12. The data set can be described thus: Antioxidant activity against free fatty acid induced oxidative stress in mouse AML12 cells assessed as upregulation of NQO1 protein expression level incubated for 24 hrs by immunoblot analysis. Format: functional, cell-based.
A short description of data set [32]: Acute toxicity in zebrafish assessed as death at 5 uM observed at 120 hrs post fertilization. As to conditions: in vivo. The arrangement: species or system Danio rerio.
Data set [33] is described as follows: Acute toxicity in zebrafish assessed as pericardial edema at 5 uM observed at 120 hrs post fertilization. As to conditions: in vivo. Also on record: species or system Danio rerio.

The source made the active and inactive calls. The rule behind the calls is not given here.

Turning to `CC1(C)CC[C@]2(C(=O)O)CC[C@]3(C)[C@H](C(=O)C=C4[C@@]5(C)C=C(C#N)C(=O)C(C)(C)[C@@H]5CC[C@]43C)[C@@H]2C1` [BARDOXOLONE], the Activity entry in data set [1], in data set [2], in [3], in [5], in [7] and in data set [13] was “Toxic” throughout. Besides, the Activity entry in data set [14] is “Toxic”; in data set [23], “Non-Toxic”; in [27] it was “Non-Toxic”; in data set [32] it was “Toxic”; in [33], “Toxic”. The outcome (in the data set with AML12 [4]; in the data set with Mus musculus [6]; with Mus musculus [8]; in data set [10]; with Mus musculus [11]; in the data set on Mus musculus [16]) was inactive. The outcome with Mus musculus [17], in the data set on AML12 [18], in the data set with AML12 [22], with AML12 [26], in the data set with Mus musculus [28] and in the data set with Mus musculus [30] was inactive. The result in the data set on AML12 [31] was inactive. Also, in data set [9], the Kd amounted to 48.7 µM. Also, the result with Mus musculus [12], in the data set with Mus musculus [15], with Mus musculus [19], with Mus musculus [20], in the data set with Mus musculus [21] and in the data set with AML12 [24] was Active. Further, the result in the data set on AML12 [25] and in the data set on Mus musculus [29] was Active.
Regarding `CN1C(=O)CCC(N2C(=O)c3cccc(NCCCCCNC(=O)[C@]45CCC(C)(C)C[C@H]4[C@H]4C(=O)C=C6C7(C)C=C(C#N)C(=O)C(C)(C)[C@@H]7CC[C@@]6(C)[C@]4(C)CC5)c3C2=O)C1=O` (single isomer, unassigned), the result in data set [10] was inactive.
With `Nc1cccc2c1C(=O)N(C1CCC(=O)NC1=O)C2=O` (stereo not given), the outcome in data set [10] was inactive.
